# Results from patent publication US11117890B2, “Substituted isoindole allosteric EGFR inhibitors” (Hoffmann-La Roche Inc., priority 2017, dated 2021).
# Target: T1, Phospho-EGFR in H1975 cell line (Homo sapiens, UniProt P00533, L858R/T790M)
# T1 construct: H1975 cell line was obtained from American Type Culture Collection; host or cells: H1975
# Experiment: HTRF Phospo EGFR Assay (Cellular)
# Type: cell-based
# Settings: H1975 cells; 6 hours compound incubation in starving medium; HTRF anti-Phospho-EGFR readout
# Method: HTRF Phospo EGFR Assay (Cellular)
# H1975 cell line was obtained from American Type Culture Collection (Manassas, Va., USA). Cells were maintained at 37° C., 5% CO2 in complete Media RPMI 1640 without phenol red containing 0.3 mg/ml glutamine, 100 IU/ml penicillin, and […] (Gibco) supplemented with 10% fetal bovine serum (FBS) (Gibco). Compounds were diluted into starving medium RPMI 1640 Media without phenol red containing 0.3 mg/ml glutamine, 100 IU/ml penicillin, and […] (Gibco).
# Cells were cultured overnight in a 384-well white plate (8000 cells/well) using 8 μl of complete medium/well. Cells were washed two times with 20 μl of starving medium. Media was removed by tapping plates on tissue and subsequently 8 μl of fresh starving medium/well was added. Then 4 μl/well of the 3×compound solution, containing a half-log dilution series of the compound or DMSO in starving medium, were added to the cells. After 6 hours at 37° C., 5% CO2 cells were lysed by adding to the compound mix 4 μl/well of the supplemented lysis buffer, followed by incubation for 30 min at room temperature with shaking. Lysates were stored at −20° C. overnight. The following day plates were thawed and 2 μl of anti-Phospho-EGFR Cryptate and 2 μl of anti-Phospho-EGFR-d2 antibody solutions prepared in the detection buffer were added. The plates were then incubated for at least 4 h at room temperature before reading the fluorescence emission at 620 and 665 nm using PHERAstar FX plate reader (BMG Labtech).
# T1 sequence (P00533 25-1210 T790M/L858R): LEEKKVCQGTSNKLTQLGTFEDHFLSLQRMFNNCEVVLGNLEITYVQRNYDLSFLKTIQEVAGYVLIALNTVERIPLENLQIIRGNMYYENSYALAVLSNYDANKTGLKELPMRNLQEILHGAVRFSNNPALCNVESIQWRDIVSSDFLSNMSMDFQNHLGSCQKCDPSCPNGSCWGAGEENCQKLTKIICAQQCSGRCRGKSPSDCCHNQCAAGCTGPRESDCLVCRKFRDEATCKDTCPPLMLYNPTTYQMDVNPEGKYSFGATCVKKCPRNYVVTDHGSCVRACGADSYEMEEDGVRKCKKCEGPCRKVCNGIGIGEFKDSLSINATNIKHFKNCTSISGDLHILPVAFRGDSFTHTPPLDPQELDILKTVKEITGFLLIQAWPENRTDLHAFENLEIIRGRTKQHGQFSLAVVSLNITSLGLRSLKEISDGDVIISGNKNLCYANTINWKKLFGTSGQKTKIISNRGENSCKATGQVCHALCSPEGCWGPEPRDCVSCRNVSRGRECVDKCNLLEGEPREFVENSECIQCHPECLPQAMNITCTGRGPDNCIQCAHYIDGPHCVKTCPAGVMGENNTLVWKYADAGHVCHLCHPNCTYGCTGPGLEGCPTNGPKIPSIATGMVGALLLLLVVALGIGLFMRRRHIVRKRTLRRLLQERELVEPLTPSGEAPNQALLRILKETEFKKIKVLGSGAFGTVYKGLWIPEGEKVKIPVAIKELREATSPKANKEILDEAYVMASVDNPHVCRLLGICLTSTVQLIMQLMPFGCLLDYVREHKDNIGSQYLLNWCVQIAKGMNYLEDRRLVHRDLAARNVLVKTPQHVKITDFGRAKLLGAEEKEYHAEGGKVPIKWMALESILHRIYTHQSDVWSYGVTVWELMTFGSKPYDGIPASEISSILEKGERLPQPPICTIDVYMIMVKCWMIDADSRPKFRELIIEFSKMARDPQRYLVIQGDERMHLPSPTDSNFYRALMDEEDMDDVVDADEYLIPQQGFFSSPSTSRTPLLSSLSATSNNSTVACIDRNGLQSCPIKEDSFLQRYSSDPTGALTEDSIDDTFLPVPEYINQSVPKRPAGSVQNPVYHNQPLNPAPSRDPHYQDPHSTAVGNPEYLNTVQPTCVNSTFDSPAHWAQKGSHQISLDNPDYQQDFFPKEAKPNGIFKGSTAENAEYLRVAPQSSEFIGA
row,IC50 [nM],Structure (SMILES)
1,7,"O=C(Nc1nccs1)C(c1cc(F)ccc1O)N1Cc2ccc(C#Cc3ccc(CN4CCC(O)CC4)cc3)cc2C1=O (racemic) [Example 28, (2RS)-2-(5-Fluoro-2-hydroxy-phenyl)-2-[6-[2-[4-1(4-hydroxy-1-piperidyl)methyl]phenyllethynyl]-1-oxo-isoindolin-2-yl]-N-thiazol-2-yl-acetamide]"
2,8,"O=C(Nc1nccs1)C(c1cc(F)ccc1O)N1Cc2ccc(C#Cc3ccc(CN4CCNCC4)cc3)cc2C1=O (racemic) [Example 29, (2RS)-2-(5-Fluoro-2-hydroxy-phenyl)-2-[1-oxo-6-[2-[4-(piperazin-1-ylmethyl)phenyl]ethynyl]isoindolin-2-yl]-N-thiazol-2-yl-acetamide]"
3,7,"CN1CCN(Cc2ccc(C#Cc3ccc4c(c3)C(=O)N(C(C(=O)Nc3nccs3)c3cc(F)ccc3O)C4)cc2)CC1 (racemic) [Example 30, (2RS)-2-(5-Fluoro-2-hydroxy-phenyl)-2-[6-[2-[4-1(4-methylpiperazin-1-yl)methyl]phenyl]ethynyl]-1-oxo-isoindolin-2-yll-N-thiazol-2-yl-acetamide]"
4,7,"CCN1CCN(Cc2ccc(C#Cc3ccc4c(c3)C(=O)N(C(C(=O)Nc3nccs3)c3cc(F)ccc3O)C4)cc2)CC1 (racemic) [Example 31, (2RS)-2-[6-[2-[4-1(4-Ethylpiperazin-1-yl)methyl]phenyl]ethynyl1-1-oxo-isoindolin-2-yl]-2-(5-fluoro-2-hydroxy-phenyl)-N-thiazol-2-yl-acetamide]"
